What was measured:
[1] = system: Male CD rats; experiment: conditioned avoidance (shelf-jump response) test; type: in vivo
Source text: A test designed to determine the potential antipsychotic activity of the compounds of the invention is the conditioned avoidance (shelf-jump response) test.
Male CD rats (Charles River) maintained at approximately 400-450 gm body weight are used. […] A moveable wall, controlled by a motor, determines whether the rat has access to the shelf at any time during the experiment. The experimental chamber also contains a house light and sonalert. A steel grid floor in the main chamber is wired for presentation of electric shock. Each trial consists of a fifteen-second warning tone (conditioned stimulus), continuing for an additional fifteen seconds accompanied by electric shock (unconditioned stimulus). A response (jumping onto the exposed shelf of the upper chamber) occurring during the initial fifteen-second warning tone is considered an avoidance response, while a response occurring during shock delivery is considered an escape response. Trials are presented on a fixed interval schedule of one minute. The session consists of thirty-six trials. Animals are run twice weekly with control sessions always preceding a drug run, and with at least one day intervening. Compounds are administered i.p. or p.o. at appropriate pre-treatment times to a minimum of five rats at each dose level over a range of doses.
The following experimental parameters are recorded by computer: (1) the number of avoidance responses, (2) the number of escape responses, and (3) the number of trials in which no response occurred.
Response counts are summed over all subjects at a given dose. […] This number is expressed as a percentage of the total trials. Control performance is arbitrarily assigned a value of 100% for avoidance responding and the dose calculated to produce a 50% block in avoidance responding (AB50) is obtained from a dose-effect regression line fitted by the method of least squares. Potential antipsychotic compounds suppress avoidance responding and increase escape responding.

[2] = system: dopamine receptor; conditions: i.p.; result in words

CC1=NOC2C3CC(C12)C1C(=O)N(CCCCN2CCN(c4cnccn4)CC2)C(=O)C31 (stereo not drawn) [Example 7, 6-[4-[4-(2-pyrazinyl)-1-piperazinyl]butyl]-3a,4,4a,7a,8,8a-hexahydro-3-methyl-4,8-methano-5H-pyrrolo[3,4-f]-1,2-benzisoxazole-5,7(6H)-dione, ethanedioate (1:1), hemiethanolate]
Active at ([1]; i.p.): 40 mg/kg

O=C1CC2(CCCC2)CC(=O)N1CCCCN1CCN(c2ncccn2)CC1 [Buspirone, 8-[4-[4-(2-pyrimidinyl)-1-piperazinyl]butyl]-8-azaspiro[4.5]decane-7,9-dione]
activity in the apomorphine-induced stereotyped behavior assay [2]: inactive

CC1=NOC2C3CC(C12)C1C(=O)N(CCCCN2CCN(c4cncc(Cl)n4)CC2)C(=O)C31.O=C(O)C(=O)O (stereo not drawn) [Example 6, 6-[4-[4-(6-chloro-2-pyrazinyl)-1-piperazinyl]butyl]-3a,4,4a,7a,8,8a-hexahydro-3-methyl-4,8-methano-5H-pyrrolo[3,4-f]-1,2-benzisoxazole-5,7(6H)-dione, ethanedioate (1:1)]
Active at ([1]; i.p.): 40 mg/kg

Cl.O=C1C2C3CS(=O)(=O)CC3C2C(=O)N1CCCCN1CCN(c2cncc(Cl)n2)CC1 (stereo not drawn) [Example 1, 5-[4-[4-(6-chloro-2-pyrazinyl)-1-piperazinyl]butyl]tetrahydro-1H-thieno[3',4':3,4]cyclobuta[1,2-c]pyrrole-4,6(3H,5H)-dione 2,2 dioxide hydrochloride]
Active at ([1]; i.p.): 40 mg/kg | Active at ([1]; p.o.): 40 mg/kg

CC1=NOC2C3CCC(C12)C1C(=O)N(CCCCN2CCN(c4cnccn4)CC2)C(=O)C31.O=C(O)C(=O)O (stereo not drawn) [Example 11, 6-[4-[4-(2-pyrazinyl)-1-piperazinyl]butyl]-3a,4,4a,7a,8,8a-hexahydro-3-methyl-4,8-ethano-5H-pyrrolo[3,4-f]-1,2-benzisoxazole-5,7(6H)-dione, ethanedioate (1:1)]
Active at ([1]; i.p.): 40 mg/kg

Cl.O=C1C2C3CS(=O)(=O)CC3C2C(=O)N1CCCCN1CCN(c2nccnc2Cl)CC1 (stereo not drawn) [Example 2, 5-[4-[4-(3-chloro-2-pyrazinyl)-1-piperazinyl]butyl]tetrahydro-1H-thieno[3',4':3,4]cyclobuta[1,2-c]pyrrole-4,6(3H,5H)dione 2,2-dioxide, hydrochloride]
Active at ([1]; i.p.): 40 mg/kg

6-[4-[4-2-pyrimidinyl)-1-piperazinyl]butyl]-3a,4,4a,7a,8,8a-hexahydro-3-methyl-4,8-methano-5H-pyrrolo[3,4-f]-1,2-benzisoxazole-5,7(6H)-dione, dihydrochloride, hydrate [Example 8]
Active at ([1]; i.p.): 40 mg/kg

CC1=NOC2C3CCC(C12)C1C(=O)N(CCCCN2CCN(c4ncccn4)CC2)C(=O)C31.O=C(O)C(=O)O (stereo not drawn) [Example 10, 6-[4-[4-(2-pyrimidinyl)-1-piperazinyl]butyl]-3a,4,4a,7a,8,8a-hexahydro-3-methyl-4,8-ethano-5H-pyrrolo[3,4-f]-1,2-benzisoxazole-5,7(6H)-dione, ethanedioate (1:1)]
Active at ([1]; i.p.): 40 mg/kg

Reference: patent US5053508A, “Fused heterotricyclic imides with psychotropic activity and intermedrates thereof” (American Home Products Corporation, priority 1990, dated 1991)
